Patent US12606548B2, “Fungicidal oxadiazoles” (FMC CORPORATION, priority 2019, dated 2026)

Assays:
Type in all cases: in vivo
[1] = system: Puccinia recondita f. sp. tritici; test: Test C: test suspension sprayed on wheat seedlings, inoculated next day with Puccinia recondita f. sp. tritici (wheat leaf rust), visual disease rating; conditions: for Test C rating (% disease control): relative to the controls
Excerpt: General protocol for preparing test suspensions for Tests A-C: the test compounds were first dissolved in acetone in an amount equal to 3% of the final volume and then suspended at the desired concentration (in ppm) in acetone and purified water (50/50 mix by volume) containing 250 ppm of the surfactant PEG400 (polyhydric alcohol esters). The resulting test suspensions were then used in Tests A-C. The test suspension was sprayed to the point of run-off on wheat seedlings. The following day the seedlings were inoculated with a spore suspension of Puccinia recondita f. sp. tritici; (the causal agent of wheat leaf rust) and incubated in a saturated atmosphere at 20° C., for 24 h, and then moved to a growth chamber at 20° C., for 6 days, after which time visual disease ratings were made. […] A dash (-) indicates the compound was not tested. The test suspensions were sprayed at the concentration listed in the column “Rate in ppm”, unless otherwise indicated.

Phakopsora pachyrhizi = test: Test A: test suspension sprayed on soybean seedlings, inoculated next day with Phakopsora pachyrhizi (Asian soybean rust), visual disease rating; conditions: for Test A rating (% disease control): relative to the controls
Excerpt: General protocol for preparing test suspensions for Tests A-C: the test compounds were first dissolved in acetone in an amount equal to 3% of the final volume and then suspended at the desired concentration (in ppm) in acetone and purified water (50/50 mix by volume) containing 250 ppm of the surfactant PEG400 (polyhydric alcohol esters). The resulting test suspensions were then used in Tests A-C. The test suspension was sprayed to the point of run-off on soybean seedlings. The following day the seedlings were inoculated with a spore suspension of Phakopsora pachyrhizi (the causal agent of Asian soybean rust) and incubated in a saturated atmosphere at 22° C., for 24 h and then moved to a growth chamber at 22° C., for 8 days, after which time visual disease ratings were made. […] A dash (-) indicates the compound was not tested. The test suspensions were sprayed at the concentration listed in the column “Rate in ppm”, unless otherwise indicated.

Zymoseptoria tritici = test: Test B: test suspension sprayed on wheat seedlings, inoculated next day with Zymoseptoria tritici (wheat leaf blotch), visual disease rating
Excerpt: General protocol for preparing test suspensions for Tests A-C: the test compounds were first dissolved in acetone in an amount equal to 3% of the final volume and then suspended at the desired concentration (in ppm) in acetone and purified water (50/50 mix by volume) containing 250 ppm of the surfactant PEG400 (polyhydric alcohol esters). The resulting test suspensions were then used in Tests A-C.
The test suspension was sprayed to the point of run-off on wheat seedlings. The following day the seedlings were inoculated with a spore suspension of Zymoseptoria tritici (the causal agent of wheat leaf blotch) and incubated in a saturated atmosphere at 24° C., for 48 h, and then moved to a growth chamber at 20° C., for 17 days, after which time visual disease ratings were made.
Results for Tests A-C are given in Table A. In the Table, a rating of 100 indicates 100% disease control and a rating of 0 indicates no disease control (relative to the controls). A dash (-) indicates the compound was not tested. The test suspensions were sprayed at the concentration listed in the column “Rate in ppm”, unless otherwise indicated. An asterisk “*” next to the rating indicates a 250 ppm test suspension was used, a double asterisk “**” next to the rating indicates a 100 ppm test suspension was used, and a triple asterisk “***” next to the rating indicates a 50 ppm test suspension was used.

1,3-dihydro-1-methyl-3-[[4-[5-(trifluoromethyl)-1,2,4-oxadiazol-3-yl]phenyl]methyl]-2H-benzimidazol-2-one [Compound 159]
Test C disease control rating ([1]; 250 ppm test suspension): 100% | Test A disease control rating (Phakopsora pachyrhizi; 250 ppm test suspension): 100% | Test B disease control rating (Zymoseptoria tritici; 250 ppm test suspension): 0%

1-[[4-[5-(trifluoromethyl)-1,2,4-oxadiazol-3-yl]phenyl]methyl]-2(1H)-quinoxalinone [Compound 158]
Test C disease control rating ([1]; 250 ppm test suspension): 100% | Test A disease control rating (Phakopsora pachyrhizi; 250 ppm test suspension): 100% | Test B disease control rating (Zymoseptoria tritici; 250 ppm test suspension): 0%

2-[[4-[5-(trifluoromethyl)-1,2,4-oxadiazol-3-yl]phenyl]methyl]-1H-isoindole-1,3(2H)-dione [Compound 90]
Test C disease control rating ([1]; 260 ppm test suspension): 100% | Test A disease control rating (Phakopsora pachyrhizi; 260 ppm test suspension): 100% | Test B disease control rating (Zymoseptoria tritici; 260 ppm test suspension): 100%

4,5-dihydro-2-[[4-[5-(trifluoromethyl)-1,2,4-oxadiazol-3-yl]phenyl]methyl]-4-oxazolecarboxamide [Compound 75]
Test C disease control rating ([1]; 250 ppm test suspension): 100% | Test A disease control rating (Phakopsora pachyrhizi; 250 ppm test suspension): 100% | Test B disease control rating (Zymoseptoria tritici; 250 ppm test suspension): 98%

4,5-dihydro-N,N-dimethyl-2-[[4-[5-(trifluoromethyl)-1,2,4-oxadiazol-3-yl]phenyl]methyl]-4-oxazolecarboxamide [Compound 178]
Test C disease control rating ([1]; 260 ppm test suspension): 100% | Test A disease control rating (Phakopsora pachyrhizi; 260 ppm test suspension): 100% | Test B disease control rating (Zymoseptoria tritici; 260 ppm test suspension): 93%

COC(=O)c1nccn(Cc2ccc(-c3noc(C(F)(F)F)n3)cc2)c1=O [compound 423]
Test C rating (% disease control) ([1]; Rate 10 ppm test suspension): 80% | Test A rating (% disease control) (Phakopsora pachyrhizi; Rate 10 ppm test suspension): 86%

CCOC(=O)c1cnn(Cc2ccc(-c3noc(C(F)(F)F)n3)cn2)c1 [compound 424]
Test C rating (% disease control) ([1]; Rate 10 ppm test suspension): 96% | Test A rating (% disease control) (Phakopsora pachyrhizi; Rate 10 ppm test suspension): 100%

COC(=O)c1cnn(CCCc2ccc(-c3noc(C(F)(F)F)n3)cc2)c1 [compound 427]
Test C rating (% disease control) ([1]; Rate 50 ppm test suspension): 67% | Test A rating (% disease control) (Phakopsora pachyrhizi; Rate 50 ppm test suspension): 100%

CCOC(=O)c1cnn(CCCc2ccc(-c3noc(C(F)(F)F)n3)cc2)c1 [compound 428]
Test C rating (% disease control) ([1]; Rate 50 ppm test suspension): 100% | Test A rating (% disease control) (Phakopsora pachyrhizi; Rate 50 ppm test suspension): 100%

CCOC(=O)C1(Cc2ccc(-c3noc(C(F)(F)F)n3)cc2)CCNC1=O (stereo not shown) [compound 431]
Test C rating (% disease control) ([1]; Rate 50 ppm test suspension): 98% | Test A rating (% disease control) (Phakopsora pachyrhizi; Rate 50 ppm test suspension): 99%

CCOC(=O)C1(Cc2ccc(-c3noc(C(F)(F)F)n3)cc2)CCCNC1=O (stereo not shown) [compound 432]
Test C rating (% disease control) ([1]; Rate 50 ppm test suspension): 92% | Test A rating (% disease control) (Phakopsora pachyrhizi; Rate 50 ppm test suspension): 100%

FC(F)(F)c1nc(-c2ccc(Cn3cc4cnc(Cl)nc4n3)cc2)no1 [compound 433]
Test C rating (% disease control) ([1]; Rate 10 ppm test suspension): 99% | Test A rating (% disease control) (Phakopsora pachyrhizi; Rate 10 ppm test suspension): 100%

CSCC(=O)COC(=O)c1cnn(Cc2ccc(-c3noc(C(F)(F)F)n3)cc2)c1 [compound 434]
Test C rating (% disease control) ([1]; Rate 10 ppm test suspension): 98% | Test A rating (% disease control) (Phakopsora pachyrhizi; Rate 10 ppm test suspension): 100%

N#Cc1cnn(CCCc2ccc(-c3noc(C(F)(F)F)n3)cc2)c1 [compound 435]
Test C rating (% disease control) ([1]; Rate 10 ppm test suspension): 74% | Test A rating (% disease control) (Phakopsora pachyrhizi; Rate 10 ppm test suspension): 100%

COC(=O)c1cnn(CCCc2ccc(-c3noc(C(F)(F)F)n3)cc2)c1 [compound 436]
Test C rating (% disease control) ([1]; Rate 10 ppm test suspension): 74% | Test A rating (% disease control) (Phakopsora pachyrhizi; Rate 10 ppm test suspension): 100%

CCOC(=O)c1cnn(CCCc2ccc(-c3noc(C(F)(F)F)n3)cc2)c1 [compound 437]
Test C rating (% disease control) ([1]; Rate 10 ppm test suspension): 86% | Test A rating (% disease control) (Phakopsora pachyrhizi; Rate 10 ppm test suspension): 100%

CCCOC(=O)c1cnn(Cc2cc(OC)c(-c3noc(C(F)(F)F)n3)s2)c1 [compound 439]
Test C rating (% disease control) ([1]; Rate 10 ppm test suspension): 0% | Test A rating (% disease control) (Phakopsora pachyrhizi; Rate 10 ppm test suspension): 0%

C=CCOC(=O)c1cnn(Cc2cc(OC)c(-c3noc(C(F)(F)F)n3)s2)c1 [compound 440]
Test C rating (% disease control) ([1]; Rate 10 ppm test suspension): 0% | Test A rating (% disease control) (Phakopsora pachyrhizi; Rate 10 ppm test suspension): 0%

CC(=O)Nc1cnn(Cc2ccc(-c3noc(C(F)(F)F)n3)cc2)c1 [compound 441]
Test C rating (% disease control) ([1]; Rate 10 ppm test suspension): 9% | Test A rating (% disease control) (Phakopsora pachyrhizi; Rate 10 ppm test suspension): 87%

CS(=O)(=O)Nc1cnn(Cc2ccc(-c3noc(C(F)(F)F)n3)cc2)c1 [compound 442]
Test C rating (% disease control) ([1]; Rate 10 ppm test suspension): 0% | Test A rating (% disease control) (Phakopsora pachyrhizi; Rate 10 ppm test suspension): 44%

CCOC(=O)Nc1cnn(Cc2ccc(-c3noc(C(F)(F)F)n3)cc2)c1 [compound 443]
Test C rating (% disease control) ([1]; Rate 10 ppm test suspension): 74% | Test A rating (% disease control) (Phakopsora pachyrhizi; Rate 10 ppm test suspension): 100%

FC(F)(F)c1nc(-c2ccc(Cn3ncc4c(I)ccnc43)cc2)no1 [compound 444]
Test C rating (% disease control) ([1]; Rate 10 ppm test suspension): 86% | Test A rating (% disease control) (Phakopsora pachyrhizi; Rate 10 ppm test suspension): 96%

FC(F)(F)c1nc(-c2ccc(Cn3cc4c(I)ccnc4n3)cc2)no1 [compound 445]
Test C rating (% disease control) ([1]; Rate 10 ppm test suspension): 99% | Test A rating (% disease control) (Phakopsora pachyrhizi; Rate 10 ppm test suspension): 100%

Nc1nn(Cc2ccc(-c3noc(C(F)(F)F)n3)cc2)c2ncccc12 [compound 446]
Test C rating (% disease control) ([1]; Rate 10 ppm test suspension): 86% | Test A rating (% disease control) (Phakopsora pachyrhizi; Rate 10 ppm test suspension): 99%

CCCCCOC(=O)c1cnn(Cc2ccc(-c3noc(C(F)(F)F)n3)cc2)c1 [compound 447]
Test C rating (% disease control) ([1]; Rate 10 ppm test suspension): 100% | Test A rating (% disease control) (Phakopsora pachyrhizi; Rate 10 ppm test suspension): 100%

O=C(OCCCCl)c1cnn(Cc2ccc(-c3noc(C(F)(F)F)n3)cc2)c1 [compound 448]
Test C rating (% disease control) ([1]; Rate 10 ppm test suspension): 100% | Test A rating (% disease control) (Phakopsora pachyrhizi; Rate 10 ppm test suspension): 100%

O=C(NCC(F)(F)F)c1cnn(Cc2ccc(-c3noc(C(F)(F)F)n3)cc2)c1 [compound 449]
Test C rating (% disease control) ([1]; Rate 10 ppm test suspension): 100% | Test A rating (% disease control) (Phakopsora pachyrhizi; Rate 10 ppm test suspension): 100%

CCOC(=O)c1cnn(Cc2ccc3cc(-c4noc(C(F)(F)F)n4)ccc3c2)c1 [compound 457]
Test C rating (% disease control) ([1]; Rate 50 ppm test suspension): 0% | Test A rating (% disease control) (Phakopsora pachyrhizi; Rate 50 ppm test suspension): 77%

O=C1N(Cc2ccc(-c3noc(C(F)(F)F)n3)cc2)CCc2cncn21 [compound 462]
Test C rating (% disease control) ([1]; Rate 10 ppm test suspension): 89% | Test A rating (% disease control) (Phakopsora pachyrhizi; Rate 10 ppm test suspension): 100%

COCCCOC(=O)c1cnn(Cc2ccc(-c3noc(C(F)(F)F)n3)cc2)c1 [compound 474]
Test C rating (% disease control) ([1]; Rate 10 ppm test suspension): 100% | Test A rating (% disease control) (Phakopsora pachyrhizi; Rate 10 ppm test suspension): 100%

O=C(OCCN1CCOCC1)c1cnn(Cc2ccc(-c3noc(C(F)(F)F)n3)cc2)c1 [compound 475]
Test C rating (% disease control) ([1]; Rate 10 ppm test suspension): 91% | Test A rating (% disease control) (Phakopsora pachyrhizi; Rate 10 ppm test suspension): 100%

CCOC(=O)COC(=O)c1cnn(Cc2ccc(-c3noc(C(F)(F)F)n3)cc2)c1 [compound 476]
Test C rating (% disease control) ([1]; Rate 10 ppm test suspension): 86% | Test A rating (% disease control) (Phakopsora pachyrhizi; Rate 10 ppm test suspension): 100%

O=C(OCCCl)c1cnn(Cc2ccc(-c3noc(C(F)(F)F)n3)cc2)c1 [compound 477]
Test C rating (% disease control) ([1]; Rate 10 ppm test suspension): 100% | Test A rating (% disease control) (Phakopsora pachyrhizi; Rate 10 ppm test suspension): 100%

O=C(OCCBr)c1cnn(Cc2ccc(-c3noc(C(F)(F)F)n3)cc2)c1 [compound 478]
Test C rating (% disease control) ([1]; Rate 50 ppm test suspension): 19% | Test A rating (% disease control) (Phakopsora pachyrhizi; Rate 50 ppm test suspension): 81%

O=C(OCc1ccccn1)c1cnn(Cc2ccc(-c3noc(C(F)(F)F)n3)cc2)c1 [compound 479]
Test C rating (% disease control) ([1]; Rate 10 ppm test suspension): 100% | Test A rating (% disease control) (Phakopsora pachyrhizi; Rate 10 ppm test suspension): 100%

CC(C)CCOC(=O)c1cnn(Cc2ccc(-c3noc(C(F)(F)F)n3)cc2)c1 [compound 480]
Test C rating (% disease control) ([1]; Rate 10 ppm test suspension): 98% | Test A rating (% disease control) (Phakopsora pachyrhizi; Rate 10 ppm test suspension): 100%

CCC(C)OC(=O)c1cnn(Cc2ccc(-c3noc(C(F)(F)F)n3)cc2)c1 (stereo not shown) [compound 481]
Test C rating (% disease control) ([1]; Rate 10 ppm test suspension): 100% | Test A rating (% disease control) (Phakopsora pachyrhizi; Rate 10 ppm test suspension): 100%

C=C(Cl)COC(=O)c1cnn(Cc2ccc(-c3noc(C(F)(F)F)n3)cc2)c1 [compound 482]
Test C rating (% disease control) ([1]; Rate 10 ppm test suspension): 100% | Test A rating (% disease control) (Phakopsora pachyrhizi; Rate 10 ppm test suspension): 100%

O=C(NCc1cccnc1)c1cnn(Cc2ccc(-c3noc(C(F)(F)F)n3)cc2)c1 [compound 483]
Test C rating (% disease control) ([1]; Rate 10 ppm test suspension): 54% | Test A rating (% disease control) (Phakopsora pachyrhizi; Rate 10 ppm test suspension): 100%

O=C(NCc1ccccc1)c1cnn(Cc2ccc(-c3noc(C(F)(F)F)n3)cc2)c1 [compound 484]
Test C rating (% disease control) ([1]; Rate 10 ppm test suspension): 100% | Test A rating (% disease control) (Phakopsora pachyrhizi; Rate 10 ppm test suspension): 100%

O=C(Nc1ccccc1)c1cnn(Cc2ccc(-c3noc(C(F)(F)F)n3)cc2)c1 [compound 485]
Test C rating (% disease control) ([1]; Rate 10 ppm test suspension): 99% | Test A rating (% disease control) (Phakopsora pachyrhizi; Rate 10 ppm test suspension): 100%

C=C(C#N)COC(=O)c1cnn(Cc2ccc(-c3noc(C(F)(F)F)n3)cc2)c1 [compound 486]
Test C rating (% disease control) ([1]; Rate 10 ppm test suspension): 89% | Test A rating (% disease control) (Phakopsora pachyrhizi; Rate 10 ppm test suspension): 100%

Cc1ccc(C(O)c2ccc(-c3noc(C(F)(F)F)n3)cc2)cc1 (stereo not shown) [compound 501]
Test C rating (% disease control) ([1]; Rate 10 ppm test suspension): 0% | Test A rating (% disease control) (Phakopsora pachyrhizi; Rate 10 ppm test suspension): 100%
